Experimental findings from ChEMBL document CHEMBL4725437, “P450s under Restriction (PURE) Screen Using HepaRG and Primary Human Hepatocytes for Discovery of Novel HBV Antivirals” (ACS Med Chem Lett, 2020) are described below.

Activity calls are given as the source filed them. The rule behind the calls is not given here.

For data set [1], the system named is Hepatitis B virus. Put plainly: Antiviral activity against Hepatitis B virus infected in human HepaRG cells assessed as reduction in HbsAg secretion level at 10 mM treated for 1 hr on day 5 post-infection followed by removal of media and supplemented with fresh media and further incubated for 3 B37days then followed by treatment for 1 hr on day 8 post-infection followed by removal of media and supplemented with fresh media and further incubated for 3 days in presence of 50 uM SKF-525Aand measured on day 11 post-infection by chemiluminescence immunostaining assay. Type of data set: functional, organism-based.

Data set [2] deals with T1, Cytochrome P450 3A4 (Homo sapiens, UniProt P08684). Put plainly: Inhibition of CYP3A4 in HBV-infected human primary hepatocytes at 0.2 to 20 mM using luciferin-IPA as substrate treated for 1 hr on day 5 post-infection followed by removal of media and supplemented with fresh media and further incubated for 3 days then followed by treatment for 1 hr on day 8 post-infection followed by removal of media and supplemented with fresh media and further incubated for 3 days and measured on day 11 post-infection by P450-Glo chemiluminescent assay. The format is ADME, tissue-based, Primary hepatocyte. The note with it: 20000 µM, dose 0.2-20 mM.

Data set [3] deals with T2, CYP1A2 (Homo sapiens, UniProt P05177).
T2 sequence (P05177 whole entry): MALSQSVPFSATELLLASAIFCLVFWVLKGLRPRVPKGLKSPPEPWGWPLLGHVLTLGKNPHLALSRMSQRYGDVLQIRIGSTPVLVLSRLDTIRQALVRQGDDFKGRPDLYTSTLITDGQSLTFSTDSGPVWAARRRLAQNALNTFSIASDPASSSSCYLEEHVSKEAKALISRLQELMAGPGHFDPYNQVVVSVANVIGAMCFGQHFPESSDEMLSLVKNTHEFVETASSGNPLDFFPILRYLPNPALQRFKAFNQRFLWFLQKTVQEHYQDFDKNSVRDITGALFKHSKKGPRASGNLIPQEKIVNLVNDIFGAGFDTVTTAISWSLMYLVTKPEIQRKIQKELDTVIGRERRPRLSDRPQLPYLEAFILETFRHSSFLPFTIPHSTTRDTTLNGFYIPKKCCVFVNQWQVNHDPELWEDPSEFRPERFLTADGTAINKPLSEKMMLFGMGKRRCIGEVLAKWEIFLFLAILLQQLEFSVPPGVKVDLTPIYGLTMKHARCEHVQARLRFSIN
Put plainly: Inhibition of CYP1A2 in HBV-infected human HepaRG cells at 10 mM using luciferin-1A2 as substrate treated for 1 hr on day 5 post-infection followed by removal of media and supplemented with fresh media and further incubated for 3 days in presence of 50 uM SKF-525A by P450-Glo chemiluminescent assay relative to control. The format is ADME, tissue-based. The note with it: probe luciferin-1A2, with SKF-525A 50 uM.

Data set [4] deals with T3, CYP3A4 (Homo sapiens, UniProt P08684). Description: Inhibition of CYP3A4 in HBV-infected human HepaRG cells at 10 mM using luciferin-IPA as substrate treated for 1 hr on day 5 post-infection followed by removal of media and supplemented with fresh media and further incubated for 3 days by P450-Glo chemiluminescent assay relative to control. The format is ADME, tissue-based. The note with it: probe luciferin-IPA.

In data set [5] the target is T3, CYP3A4. Put plainly: Inhibition of CYP3A4 in HBV-infected human HepaRG cells at 10 mM using luciferin-IPA as substrate treated for 1 hr on day 5 post-infection followed by removal of media and supplemented with fresh media and further incubated for 3 days then followed by treatment for 1 hr on day 8 post-infection followed by removal of media and supplemented with fresh media and further incubated for 3 days and measured on day 11 post-infection by P450-Glo chemiluminescent assay relative to control. The format is ADME, tissue-based. The note with it: probe luciferin-IPA.

Data set [6] deals with Cytochrome P450 2C9 (Homo sapiens, UniProt P11712). Put plainly: Inhibition of CYP2C9 in HBV-infected human HepaRG cells at 0.2 to 20 mM using luciferin-H as substrate treated for 1 hr on day 5 post-infection followed by removal of media and supplemented with fresh media and further incubated for 3 days then followed by treatment for 1 hr on day 8 post-infection followed by removal of media and supplemented with fresh media and further incubated for 3 days and measured on day 11 post-infection by P450-Glo chemiluminescent assay. Type of data set: ADME, tissue-based. The note with it: 20000 µM, dose 0.2-20 mM.

The test system of data set [7] is HepaRG. Put plainly: Cytotoxicity against human HepaRG cells infected with HBV assessed as reduction in cell viability at 50 uM treated for 1 hr on day 5 post-infection followed by removal of media and supplemented with fresh media and further incubated for 3 days then followed by treatment for 1 hr on day 8 post-infection followed by removal of media and supplemented with fresh media and further incubated for 3 days in presence of 10 mM ABT and measured on day 11 post-infection by Celltiter-Glo assay. The format is cell-based.

Data set [8] has as its system Hepatitis B virus. Put plainly: Antiviral activity against Hepatitis B virus infected in human HepaRG cells assessed as reduction in HbsAg secretion level at 50 uM treated for 1 hr on day 5 post-infection followed by removal of media and supplemented with fresh media and further incubated for 3 B37days then followed by treatment for 1 hr on day 8 post-infection followed by removal of media and supplemented with fresh media and further incubated for 3 days in presence of 10 mM ABT and measured on day 11 post-infection by chemiluminescence immunostaining assay. The format is functional, organism-based.

Data set [9] addresses T1, Cytochrome P450 3A4. Description: Inhibition of CYP3A4 in HBV-infected human primary hepatocytes at 5 to 100 uM using luciferin-IPA as substrate treated for 1 hr on day 5 post-infection followed by removal of media and supplemented with fresh media and further incubated for 3 days then followed by treatment for 1 hr on day 8 post-infection followed by removal of media and supplemented with fresh media and further incubated for 3 days and measured on day 11 post-infection by P450-Glo chemiluminescent assay. The format is ADME, tissue-based, Primary hepatocyte. The note with it: dose 5-100 µM.

Data set [10] addresses T4, CYP2C9 (Homo sapiens, UniProt P11712). Put plainly: Inhibition of CYP2C9 in HBV-infected human HepaRG cells at 50 uM using luciferin-H as substrate treated for 1 hr on day 5 post-infection followed by removal of media and supplemented with fresh media and further incubated for 3 days then followed by treatment for 1 hr on day 8 post-infection followed by removal of media and supplemented with fresh media and further incubated for 3 days in presence of 10 mM ABT and measured on day 11 post-infection by P450-Glo chemiluminescent assay relative to control. Type of data set: ADME, tissue-based. The note with it: probe luciferin-H, with ABT 10 mM.

Data set [11] has as its target T3, CYP3A4. Put plainly: Inhibition of CYP3A4 in HBV-infected human HepaRG cells at 50 uM using luciferin-IPA as substrate treated for 1 hr on day 5 post-infection followed by removal of media and supplemented with fresh media and further incubated for 3 days then followed by treatment for 1 hr on day 8 post-infection followed by removal of media and supplemented with fresh media and further incubated for 3 days and measured on day 11 post-infection by P450-Glo chemiluminescent assay relative to control. Type of data set: ADME, tissue-based. The note with it: probe luciferin-IPA.

In data set [12] the target is T4, CYP2C9. Description: Inhibition of CYP2C9 in HBV-infected human HepaRG cells at 50 uM using luciferin-H as substrate treated for 1 hr on day 5 post-infection followed by removal of media and supplemented with fresh media and further incubated for 3 days then followed by treatment for 1 hr on day 8 post-infection followed by removal of media and supplemented with fresh media and further incubated for 3 days and measured on day 11 post-infection by P450-Glo chemiluminescent assay relative to control. The format is ADME, tissue-based. The note with it: probe luciferin-H.

Data set [13] concerns the target T4, CYP2C9. Description: Inhibition of CYP2C9 in HBV-infected human HepaRG cells at 50 uM using luciferin-H as substrate treated for 1 hr on day 5 post-infection followed by removal of media and supplemented with fresh media and further incubated for 3 days by P450-Glo chemiluminescent assay relative to control. The note with it: probe luciferin-H. Type of data set: ADME, tissue-based.

T3 sequence (P08684 whole entry): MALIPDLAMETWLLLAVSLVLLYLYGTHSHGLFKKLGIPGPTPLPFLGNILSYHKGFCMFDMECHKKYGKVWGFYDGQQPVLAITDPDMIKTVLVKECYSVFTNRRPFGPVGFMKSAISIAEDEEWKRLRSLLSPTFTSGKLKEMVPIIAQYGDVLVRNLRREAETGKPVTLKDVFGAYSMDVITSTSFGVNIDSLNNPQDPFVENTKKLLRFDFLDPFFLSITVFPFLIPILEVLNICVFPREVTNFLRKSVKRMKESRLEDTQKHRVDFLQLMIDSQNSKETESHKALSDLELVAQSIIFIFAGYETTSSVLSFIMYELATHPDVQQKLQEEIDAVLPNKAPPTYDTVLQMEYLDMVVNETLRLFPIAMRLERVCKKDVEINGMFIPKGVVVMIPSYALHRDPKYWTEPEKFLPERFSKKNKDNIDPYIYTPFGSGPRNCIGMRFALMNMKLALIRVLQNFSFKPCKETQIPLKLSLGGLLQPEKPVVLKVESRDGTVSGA
T4 sequence (P11712 whole entry): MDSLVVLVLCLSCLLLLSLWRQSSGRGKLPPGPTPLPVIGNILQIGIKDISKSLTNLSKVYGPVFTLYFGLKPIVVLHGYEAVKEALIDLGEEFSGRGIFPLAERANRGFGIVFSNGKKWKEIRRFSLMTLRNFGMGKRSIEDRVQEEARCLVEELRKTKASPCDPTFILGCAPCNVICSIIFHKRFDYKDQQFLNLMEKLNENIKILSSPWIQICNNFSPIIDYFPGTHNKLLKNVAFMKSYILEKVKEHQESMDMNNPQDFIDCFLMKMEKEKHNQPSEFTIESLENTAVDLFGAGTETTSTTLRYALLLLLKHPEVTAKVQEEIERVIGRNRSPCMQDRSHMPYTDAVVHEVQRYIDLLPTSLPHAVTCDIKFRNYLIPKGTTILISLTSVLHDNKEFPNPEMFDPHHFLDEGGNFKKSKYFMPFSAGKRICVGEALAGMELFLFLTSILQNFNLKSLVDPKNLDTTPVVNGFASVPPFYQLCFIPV
T1 sequence (P08684 whole entry): as the sequence (P08684 whole entry) above
Sequence of Cytochrome P450 2C9 (P11712 whole entry): as the sequence (P11712 whole entry) above

With `Nn1nnc2ccccc21`, in data set [1], the result was inactive. Moreover, the “inhibition (INH)” value in data set [2] and in data set [6] was “Active” in each case. For the same compound, the results for the inhibition at 1 h, 10000 µM in data set [3] and in data set [4] were 39.2% and 9.6%, respectively. Further, the inhibition (in general, the relative decrease from the control value, in per cent) at 1 h, 50 µM in data set [5] turned out to be 87.8%.

With `CCCC(C(=O)OCCN(CC)CC)(c1ccccc1)c1ccccc1` [PROADIFEN], the Activity result in data set [7] is “Non-Toxic”. The result in data set [8] was inactive. Moreover, the “inhibition (INH)” value in data set [9] is on record as “Active”. For the same compound, the inhibition at 1 h, 50 µM worked out at 82.1% in data set [10], 93% in data set [11], 42.2% in data set [12] and 21.4% in data set [13].
